Experimental data taken from the NIST ThermoML archive (doi:10.1021/je060271a).

Conditions: 323.14 K, Liquid, Vibrating tube method

CCCCCCC(=O)OCC(COC(=O)CCCCCC)(COC(=O)CCCCCC)COC(=O)CCCCCC [pentaerythritol tetraheptanoate]
Conditions | mass density [kg/m3]
18264 kPa | 967.6
18279 kPa | 967.6
18292 kPa | 967.7
18304 kPa | 967.6
18320 kPa | 967.6
18332 kPa | 967.6
18347 kPa | 967.6
18360 kPa | 967.7
18373 kPa | 967.7
18385 kPa | 967.8
18401 kPa | 967.7
18413 kPa | 967.8
18426 kPa | 967.6
18442 kPa | 967.8
18454 kPa | 967.7
18469 kPa | 967.7
18482 kPa | 967.7
18495 kPa | 967.7
18511 kPa | 967.7
18920 kPa | 967.9
18933 kPa | 968
18964 kPa | 968.1
19110 kPa | 968.3
19518 kPa | 968.3
19532 kPa | 968.3
19550 kPa | 968.4
19962 kPa | 968.7
20010 kPa | 968.7
20615 kPa | 969.1
20951 kPa | 969.3
20968 kPa | 969.2
21002 kPa | 969.4
21114 kPa | 969.2
21149 kPa | 969.4
21166 kPa | 969.4
21187 kPa | 969.4
21204 kPa | 969.5
21222 kPa | 969.3
21243 kPa | 969.4
21261 kPa | 969.4
21812 kPa | 969.9
21889 kPa | 969.8
21912 kPa | 969.9
22010 kPa | 969.9
22028 kPa | 970
22051 kPa | 969.9
22255 kPa | 970
22294 kPa | 970.1
22673 kPa | 970.3
22693 kPa | 970.2
22738 kPa | 970.5
22934 kPa | 970.5
22955 kPa | 970.5
22976 kPa | 970.5
23001 kPa | 970.4
23022 kPa | 970.6
23064 kPa | 970.5
23111 kPa | 970.6
23132 kPa | 970.6
23157 kPa | 970.6
23178 kPa | 970.5
23200 kPa | 970.6
23225 kPa | 970.5
23246 kPa | 970.5
23268 kPa | 970.7
23294 kPa | 970.7
23315 kPa | 970.7
23358 kPa | 970.7
23384 kPa | 970.8
23431 kPa | 970.8
23453 kPa | 970.8
23474 kPa | 970.7
23496 kPa | 970.9
23522 kPa | 970.8
23544 kPa | 970.8
23566 kPa | 970.8
23592 kPa | 970.8
23614 kPa | 970.8
23755 kPa | 971
23777 kPa | 970.9
23805 kPa | 971.1
23827 kPa | 971
23853 kPa | 970.9
23875 kPa | 971
23898 kPa | 971.1
23921 kPa | 971
23948 kPa | 971
24439 kPa | 971.4
24490 kPa | 971.3
24592 kPa | 971.5
24645 kPa | 971.6
24693 kPa | 971.5
24722 kPa | 971.5
24746 kPa | 971.5
24799 kPa | 971.6
24824 kPa | 971.6
24848 kPa | 971.6
24874 kPa | 971.5
24903 kPa | 971.6
24928 kPa | 971.6
24957 kPa | 971.7
24981 kPa | 971.5
25006 kPa | 971.7
25031 kPa | 971.8
25061 kPa | 971.7
25387 kPa | 971.9
25413 kPa | 972
25633 kPa | 972.1
25717 kPa | 972
25828 kPa | 972
25860 kPa | 972.3
25888 kPa | 972.3
